The source made the active and inactive calls. The rule behind the calls is not given here.
What was measured:
HepG2 [1] = assay: Cytotoxicity against human HepG2 cells assessed as reduction in cell viability after 24 hrs by MTT assay; assay type: functional, cell-based
RAW264.7 [2] = assay: Anti-inflammatory activity in mouse RAW264.7 cells assessed as inhibition of LPS-induced TNFalpha secretion at 10 uM pretreated for 2 hrs followed by LPS stimulation and measured after 22 hrs by ELISA; assay type: functional, cell-based
HepG2 [3] = assay: Induction of apoptosis in human HepG2 cells assessed as increase in early apoptotic cells after 24 hrs by Annexin-V-FITC/propidium iodide staining based flow cytometry; assay type: functional, cell-based
[4] = Cytotoxicity against mouse RAW264.7 cells assessed as cell viability at 10 uM after 24 hrs by MTT assay relative to control; assay type: cell-based; details: read-out: Activity
RAW264.7 [5] = assay: Inhibition of LPS-stimulated NFkappaB activation in mouse RAW264.7 cells assessed as reduction in p65 phosphorylation at 1 to 10 uM pretreated for 2 hrs followed by LPS-stimulation and measured after 15 mins by Western blot method; assay type: cell-based
RAW264.7 [6] = assay: Inhibition of LPS-stimulated NFkappaB activation in mouse RAW264.7 cells assessed as reduction in IkappaB phosphorylation at 1 to 10 uM pretreated for 2 hrs followed by LPS-stimulation and measured after 15 mins by Western blot method; assay type: cell-based
HepG2 [7] = assay: Inhibition of TNFalpha-stimulated NFkappaB activation in human HepG2 cells assessed as reduction in p65 phosphorylation pretreated for 2 hrs followed by LPS-stimulation and measured after 15 mins by Western blot method; assay type: cell-based
[8] = biological target: Transcription factor p65 (Mus musculus) (UniProt Q04207); assay: Inhibition of LPS-stimulated NFkappaB p65 nuclear translocation in mouse RAW264.7 cells at 5 uM pretreated for 2 hrs followed by LPS-stimulation and measured after 15 mins by DAPI staining based microscopic analysis; assay type: cell-based
Sequence of Transcription factor p65 (Mus musculus) (Q04207 whole entry): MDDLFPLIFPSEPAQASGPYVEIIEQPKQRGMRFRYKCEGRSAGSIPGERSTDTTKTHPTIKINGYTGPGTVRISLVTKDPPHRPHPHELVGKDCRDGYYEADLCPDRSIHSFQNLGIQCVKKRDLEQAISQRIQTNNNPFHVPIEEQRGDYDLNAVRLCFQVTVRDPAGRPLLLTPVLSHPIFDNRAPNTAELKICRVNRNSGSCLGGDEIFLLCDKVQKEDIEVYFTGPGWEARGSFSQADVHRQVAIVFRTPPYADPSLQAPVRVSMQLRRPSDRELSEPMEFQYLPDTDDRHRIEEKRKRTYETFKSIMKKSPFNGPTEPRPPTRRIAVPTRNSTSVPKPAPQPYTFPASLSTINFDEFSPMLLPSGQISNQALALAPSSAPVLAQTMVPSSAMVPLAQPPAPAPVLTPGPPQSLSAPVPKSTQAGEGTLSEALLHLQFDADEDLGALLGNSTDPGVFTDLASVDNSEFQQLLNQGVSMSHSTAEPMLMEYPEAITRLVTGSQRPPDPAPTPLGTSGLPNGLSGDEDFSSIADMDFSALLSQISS

L02 = assay: Cytotoxicity against human LO2 cells assessed as reduction in cell viability after 24 hrs by MTT assay; assay type: cell-based; details: L02, 24 h
QGY-7703 [9] = assay: Induction of apoptosis in human QGY7703 cells assessed as increase in early apoptotic cells after 24 hrs by Annexin-V-FITC/propidium iodide staining based flow cytometry; assay type: functional, cell-based
HepG2 [10] = assay: Induction of apoptosis in human HepG2 cells assessed as decrease in Bcl2 expression after 24 hrs by Western blot analysis; assay type: functional, cell-based
HepG2 [11] = assay: Inhibition of TNFalpha-stimulated NFkappaB activation in human HepG2 cells assessed as reduction in IkappaB phosphorylation pretreated for 2 hrs followed by LPS-stimulation and measured after 15 mins by Western blot method; assay type: cell-based
HepG2 [12] = assay: Induction of apoptosis in human HepG2 cells assessed as increase in cleaved caspase 3 expression after 24 hrs by Western blot analysis; assay type: functional, cell-based
[13] = biological target: Transcription factor p65 (Homo sapiens) (UniProt Q04206); assay: Inhibition of TNFalpha-stimulated NFkappaB p65 nuclear translocation in human HepG2 cells at 5 uM pretreated for 2 hrs followed by LPS-stimulation and measured after 15 mins by DAPI staining based microscopic analysis; assay type: cell-based
Sequence of Transcription factor p65 (Homo sapiens) (Q04206 whole entry): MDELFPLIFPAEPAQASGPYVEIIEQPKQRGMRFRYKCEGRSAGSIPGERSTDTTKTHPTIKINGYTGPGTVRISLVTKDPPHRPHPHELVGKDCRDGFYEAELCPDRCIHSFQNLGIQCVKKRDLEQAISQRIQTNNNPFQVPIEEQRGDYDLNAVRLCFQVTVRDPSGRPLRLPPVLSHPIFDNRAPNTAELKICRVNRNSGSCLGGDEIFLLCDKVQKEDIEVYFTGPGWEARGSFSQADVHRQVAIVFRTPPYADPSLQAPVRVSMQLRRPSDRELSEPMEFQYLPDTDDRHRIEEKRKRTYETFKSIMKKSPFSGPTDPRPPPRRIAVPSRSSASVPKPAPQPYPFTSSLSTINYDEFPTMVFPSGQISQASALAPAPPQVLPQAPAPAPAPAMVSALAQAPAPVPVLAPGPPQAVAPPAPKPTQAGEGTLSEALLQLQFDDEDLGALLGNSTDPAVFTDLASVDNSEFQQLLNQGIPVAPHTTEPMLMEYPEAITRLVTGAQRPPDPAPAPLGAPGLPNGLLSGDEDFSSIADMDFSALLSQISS

QGY-7703 [14] = assay: Induction of apoptosis in human QGY7703 cells assessed as increase in late apoptotic cells after 24 hrs by Annexin-V-FITC/propidium iodide staining based flow cytometry; assay type: functional, cell-based
[15] = Cytotoxicity against human HHL5 cells assessed as reduction in cell viability after 24 hrs by MTT assay; assay type: cell-based; details: HHL-5, 24 h
RAW264.7 [16] = assay: Anti-inflammatory activity in mouse RAW264.7 cells assessed as inhibition of LPS-induced IL-6 secretion at 10 uM pretreated for 2 hrs followed by LPS stimulation and measured after 22 hrs by ELISA; assay type: functional, cell-based
SMMC-7721 [17] = assay: Induction of apoptosis in human SMMC7721 cells assessed as increase in late apoptotic cells after 24 hrs by Annexin-V-FITC/propidium iodide staining based flow cytometry; assay type: functional, cell-based
SMMC-7721 [18] = assay: Induction of apoptosis in human SMMC7721 cells assessed as increase in early apoptotic cells after 24 hrs by Annexin-V-FITC/propidium iodide staining based flow cytometry; assay type: functional, cell-based
HepG2 [19] = assay: Induction of apoptosis in human HepG2 cells assessed as increase in Bax expression after 24 hrs by Western blot analysis; assay type: functional, cell-based
SMMC-7721 [20] = assay: Cytotoxicity against human SMMC7721 cells assessed as reduction in cell viability after 24 hrs by MTT assay; assay type: functional, cell-based
QGY-7703 [21] = assay: Cytotoxicity against human QGY7703 cells assessed as reduction in cell viability after 24 hrs by MTT assay; assay type: functional, cell-based
HepG2 [22] = assay: Induction of apoptosis in human HepG2 cells assessed as increase in late apoptotic cells after 24 hrs by Annexin-V-FITC/propidium iodide staining based flow cytometry; assay type: functional, cell-based

inhibition [8]: Active
inhibition [13]: Active
Compound: COc1cc(/C=C2\CN(S(=O)(=O)c3ccc(NC(C)=O)cc3)C/C(=C\c3ccc(C#N)cc3)C2=O)cc(OC)c1OC
Activity (HepG2 [1]): Dose-dependent effect
IC50 (HepG2 [1]; HepG2, 24 h): 2890 nM
inhibition (RAW264.7 [2]): Active
Activity (HepG2 [3]): Dose-dependent effect
viability at 24 h, 10 µM [4]: > 80%
inhibition (RAW264.7 [5]): Active
inhibition (RAW264.7 [6]): Active
inhibition (HepG2 [7]): Dose-dependent effect
IC50 (L02): 13600 nM
Activity (QGY-7703 [9]): Dose-dependent effect
Activity (HepG2 [10]): Dose-dependent effect
inhibition (HepG2 [11]): Dose-dependent effect
Activity (HepG2 [12]): Dose-dependent effect
Activity (QGY-7703 [14]): Dose-dependent effect
IC50 [15]: 13600 nM
inhibition (RAW264.7 [16]): Active
Activity (SMMC-7721 [17]): Dose-dependent effect
Activity (SMMC-7721 [18]): Dose-dependent effect
Activity (HepG2 [19]): Dose-dependent effect
Activity (SMMC-7721 [20]): Dose-dependent effect
IC50 (SMMC-7721 [20]; SMMC-7721, 24 h): 1730 nM
Activity (QGY-7703 [21]): Dose-dependent effect
IC50 (QGY-7703 [21]; QGY-7703, 24 h): 1890 nM
Activity (HepG2 [22]): Dose-dependent effect
